How the values were obtained:
[1] = Serum 25-(OH)D3 (RIA) after 1×/month oral administration in rats with normal vitamin D status; type: in vivo, rat
Excerpt: FIG. 1 is a bar graph showing exemplary elevations of serum 25-(OH)D3 levels occurring after 1×/month oral administration of 25-(OH)D3 at 9 and 100 mcg/kgBW in rats with normal vitamin D status. The rats were male, Sprague-Dawley rats (9 weeks of age, n=15) received from a commercial supplier, and the animals were placed on a purified diet containing 0.47% calcium and allowed to acclimate for one week. After one week the animals were randomly assigned to 3 groups, bled (0 d), and then orally dosed 1× every 28 days with vehicle (5% ethanol in Neobee oil) or 25-(OH)D3 dissolved in ethanol and Neobee oil. Blood was again collected 4 hr, 24 hr, and 1, 2, 3 and 4 weeks after each single, oral dose was administered, and, serum 25-(OH)D3 concentrations were assessed using a commercially available RIA kit (DiaSorin of Stillwater, Minn.). FIG. 1 also contains data taken after 6 months of dosing.
FIG. 5 is a bar graph illustrating the increases in serum 25(OH)D3 occurring after 1×/monthly oral administration of 25(OH)D3 at 1000 and 3000 mcg/kg body weight in rats with normal vitamin D status. The rats were male, Sprague-Dawley rats (9 weeks of age, n=4-6 animals/group) received from a commercial supplier. […] Blood was collected at the times indicated in the graph, and serum 25(OH)D3 concentrations were assessed using a commercially available RIA kit (DiaSorin of Stillwater, Minn.).

[2] = Serum total calcium after 1×/month oral administration in rats with normal vitamin D status; type: in vivo, rat
Excerpt: FIG. 2 is a bar graph showing no change in serum calcium occurring after […] oral administration of 25-(OH)D3 in rats with normal vitamin D status. The rats were male, Sprague-Dawley rats (9 weeks of age, n=15) received from a commercial supplier. The animals were placed on a purified diet containing 0.47% calcium and allowed to acclimate for one week. After one week the animals were randomly assigned to 3 groups, bled (0 d), and then orally dosed 1× every […] with vehicle (5% ethanol in Neobee oil) or 25-(OH)D3 dissolved in ethanol and Neobee oil. Blood was again collected 4 hr, 24 h, and 1, 2, 3 and 4 weeks after each single, oral dose was administered, and total calcium concentrations were assessed in the serum using atomic absorption spectrometry. FIG. 2 also contains data taken after the 6th and 10th monthly dose.
The rats were male, Sprague-Dawley rats (9 weeks of age, n=4-6 animals/group) received from a commercial supplier. The animals were placed on a purified diet containing 0.47% calcium and allowed to acclimate for one week. […] Total calcium concentrations were assessed in the serum using atomic absorption spectrometry or a clinical analyzer (Pentra 400, Horiba ABX Diagnostics—France).

[3] = Serum 25-(OH)D3 (RIA) after 1×/month oral administration in vitamin D deficient rats; type: in vivo, rat
Excerpt: FIG. 3 is a bar graph showing exemplary elevations of serum 25-(OH)D3 levels occurring after 1×/month oral administration of 25-(OH)D3 at 1, 3, 9, 30 and 100 mcg/kgBW in vitamin D deficient rats. The rats were male, Sprague-Dawley rats (weanlings, n=30) received from a commercial supplier. The animals were placed in rooms that lacked light emissions in the UV range and were fed diets lacking any vitamin D, whereby at 10 weeks of age the animals were randomly assigned to 6 groups (n=5/group), bled (0 d), and then orally dosed 1× every 28 days with vehicle (5% ethanol in Neobee oil) or 25-(OH)D3 dissolved in ethanol and Neobee oil. Blood was again collected 4 hr, 24 hr, and 1, 2, 3 and 4 weeks after each single, oral dose was administered, and serum 25-(OH)D3 concentrations were assessed using a commercially available RIA kit (DiaSorin of Stillwater, Minn.). FIG. 3 includes data taken after the 6th and 10th monthly dose.
FIG. 7 is a bar graph illustrating the increases in serum 25(OH)D3 occurring after 1×/monthly oral administration of 25(OH)D3 at 1000 and 3000 mcg/kg body weight in vitamin D deficient rats. […] Blood was collected at the times indicated in the graph and serum 25(OH)D3 concentrations were assessed using a commercially available RIA kit (DiaSorin of Stillwater, Minn.).

[4] = Serum total calcium after 1×/month oral administration in vitamin D-deficient rats; type: in vivo, rat
Excerpt: FIG. 4 is a bar graph showing no increase in serum Ca concentration levels above the normal range occurring after exemplary 1×/month oral administration of 25-(OH)D3 in vitamin D-deficient rats. The rats were male, Sprague-Dawley rats (weanlings, n=30) received from a commercial supplier. The animals were placed in rooms that lacked light emissions in the UV range and fed diets lacking vitamin D. At 10 weeks of age, the rats were randomly assigned to 6 groups (n=5/group), bled (0 d) and then orally dosed 1× every 28 days with vehicle (5% ethanol in Neobee oil) or 25-(OH)D3 dissolved in ethanol and Neobee oil, whereby blood was again collected 4 hr, 24 hr, and 1, 2, 3 and 4 weeks after each single, oral dose was administered. Total calcium concentrations were assessed in the serum using absorption spectrometry. FIG. 4 includes data out to 10 months of dosing.
The rats were male, Sprague-Dawley rats (weanlings, n=4-6/group) received from a commercial supplier. […] Blood was collected at the times indicated in the graph and total calcium concentrations were assessed in the serum using atomic absorption spectrometry or a clinical analyzer (Pentra 400, Horiba ABX Diagnostics—France).

[5] = Serum 25(OH)D3 (RIA) after 1×/weekly oral administration in vitamin D deficient rats; type: in vivo, rat; conditions: FIG. 9, 1×/weekly oral, 100, 1000 and 3000 mcg/kg body weight
Excerpt: FIG. 9 is a bar graph illustrating the increases in serum 25(OH)D3 occurring after 1×/weekly oral administration of 25(OH)D3 at 100, 1000 and 3000 mcg/kg body weight in vitamin D deficient rats. The rats were male, Sprague-Dawley rats (weanlings, n=4-6/group) received from a commercial supplier. The animals were placed in rooms that lacked light emissions in the UV range. The animals were fed diets lacking any vitamin D, whereby at 10 weeks of age the animals were randomly assigned to 3 groups and then orally dosed 1× every 7 days with vehicle (5% ethanol in Neobee oil) or 25(OH)D3 dissolved in ethanol and Neobee oil. Blood was collected at the times indicated in the graph and serum 25(OH)D3 concentrations were assessed using a commercially available RIA kit (DiaSorin of Stillwater, Minn.).

[6] = Serum total calcium after 1×/weekly oral administration in vitamin D deficient rats; type: in vivo, rat; conditions: FIG. 10
Excerpt: The rats were male, Sprague-Dawley rats (weanlings, n=4-6/group) received from a commercial supplier. The animals were placed in rooms that lacked light emissions in the UV range. The animals were fed diets lacking any vitamin D. At 10 weeks of age the animals were randomly assigned to 3 groups, and then orally dosed 1× every 7 days with vehicle (5% ethanol in Neobee oil) or 25(OH)D3 dissolved in ethanol and Neobee oil. Blood was collected at the times indicated in the graph and total calcium concentrations were assessed in the serum using atomic absorption spectrometry or a clinical analyzer (Pentra 400, Horiba ABX Diagnostics—France).

Solubility of 25-(OH)D3 = type: physicochemical
Excerpt: 25-(OH)D3 can exist in its free form or as a monohydrate. 25-(OH)D3 monohydrate is crystalline.

[7] = cited from earlier work
[8] = rat, in vivo; cited from earlier work

## C=C1CC[C@H](O)C/C1=C/C=C1\CCCC2(C)[C@@H]([C@H](C)CCCC(C)(C)O)CC[C@@H]12 (stereo partly drawn) [25-(OH)D3, 25-hydroxy-vitamin D3]
[1]; FIG. 1, 1×/month oral, 9 and 100 mcg/kgBW, rats with normal vitamin D status, up to 6 months of dosing
  serum 25-(OH)D3 levels: values return to baseline 4 weeks after the dose is administered
[1]; FIG. 5, 1×/monthly oral, 1000 and 3000 mcg/kg body weight, D-sufficient rats
  serum 25(OH)D3 circulating levels: circulating levels higher than normal
[2]; FIG. 2, 1×/month oral, up to 10 months
  serum calcium (hypercalcemia): do not cause hypercalcemia
[2]; FIG. 6, 1×/monthly oral, 1000 and 3000 mcg/kg body weight
  serum calcium: no increase in serum calcium outside the normal range
[3]; FIG. 3, 1×/month oral, 1, 3, 9, 30 and 100 mcg/kgBW, vitamin D deficient rats, up to 10th monthly dose
  serum 25-(OH)D3 levels: values return to baseline 4 weeks after the dose is administered
[3]; FIG. 7, 1×/monthly oral, 1000 and 3000 mcg/kg body weight, D-deficient rats
  serum 25(OH)D3 circulating levels: circulating levels higher than normal
[4]; FIG. 4, 1×/month oral, vitamin D-deficient rats, up to 10 months
  serum Ca concentration (hypercalcemia): do not cause hypercalcemia
[4]; FIG. 8, 1×/monthly oral, 1000 and 3000 mcg/kg body weight, vitamin D deficient rats
  serum calcium: no increase in serum calcium outside the normal range
[5]
  blood levels of 25(OH)D3: above the normal range without the large fluctuations
[6]
  serum calcium: no increase in serum calcium outside the normal range
Solubility of 25-(OH)D3; organic solvents
  solubility: soluble
Solubility of 25-(OH)D3; water
  solubility: relatively insoluble
[7]; administered orally
  time to peak 25-(OH)D3 concentrations in the serum: about 4 hours
[7]; human, in vivo
  lifetime in the body: 25 to 32 days
[7]; orally administered, in man
  fraction absorbed: 62-77%
[7]; orally administered
  half-life: 12 to 23 days
[8]
  25-(OH)D3 levels with risk of causing a mild vitamin D intoxication: above 500 ng/ml
  blood level concentration at which toxicity becomes a concern: greater than 450 ng/ml

— patent publication US8759328B2, “Once-a-week administration of 25-hydroxy vitamin D3 to sustain elevated steady-state pharmacokinetic blood concentration” (Wisconsin Alumni Research Foundation, priority 2008, dated 2014)
